According to ChEMBL document CHEMBL1134153, “Novel bicyclic lactam inhibitors of thrombin: potency and selectivity optimization through P1 residues” (Bioorg Med Chem Lett, 2001):

Assays:
[1] = biological target: Prothrombin (Rattus norvegicus, UniProt P18292); experiment: In vitro ability to inhibit the amidolytic activity of thrombin
[2] = test system: Rattus norvegicus; experiment: Tested for in vivo thrombin time in rat arterial thrombosis model; assay type: functional
[3] = test system: Rattus norvegicus; experiment: Tested for in vivo activated partial thromboplastin time in rat arterial thrombosis model; assay type: functional
[4] = test system: Rattus norvegicus; experiment: Tested for in vivo mean occlusion time in rat arterial thrombosis model; assay type: functional

Structure (SMILES) | Ki [1] [nM] | TT [2] [min] | APTT [3] [min] | MOT [4] [min]
N[C@H]1CC[C@H](CNC(=O)C2CC[C@H]3CN(S(=O)(=O)Cc4ccccc4)CC(=O)N23)CC1 (some centres undefined) | 100 | – | – | –
Cc1cc(C(=N)N)ccc1CNC(=O)[C@@H]1CC[C@H]2CN(S(=O)(=O)Cc3ccccc3)CC(=O)N21 | 7 | 6.55 | 0.9 | 46
N/C(=N/O)c1ccc(CNC(=O)[C@@H]2CC[C@H]3CN(S(=O)(=O)Cc4ccccc4)CC(=O)N32)cc1 | > 10000 | – | – | –
N=C(N)NCCCCNC(=O)C1CC[C@H]2CN(C(=O)CCc3ccccc3)CC(=O)N12 (some centres undefined) | 900 | – | – | –
O=C(NC[C@H]1CC[C@H](NO)CC1)[C@@H]1CC[C@H]2CN(S(=O)(=O)Cc3ccccc3)CC(=O)N21 | 1100 | – | – | –
N=C(N)N1CCC(CNC(=O)[C@@H]2CC[C@H]3CN(S(=O)(=O)Cc4ccccc4)CC(=O)N32)CC1 | 78 | – | – | –
N=C(N)c1ccc(CNC(=O)[C@@H]2CC[C@H]3CN(S(=O)(=O)Cc4ccccc4)CC(=O)N32)cc1 | 8 | 7.58 | 0.967 | >60
N=C(N)N1CCC(CNC(=O)[C@@H]2CC[C@H]3CN(C(=O)CCc4ccccc4)CC(=O)N32)CC1 | 180 | – | – | –
N/C(=N\O)N1CCC(CNC(=O)[C@@H]2CC[C@H]3CN(S(=O)(=O)Cc4ccccc4)CC(=O)N32)CC1 | – | 3.85 | 0.633 | 48
N=C(N)NCCC[C@H](NC(=O)[C@@H]1CC[C@H]2CN(C(=O)CCc3ccccc3)CC(=O)N21)C(=O)c1nccs1 | 0.6 | – | – | –
O=C(NCc1ccc2nc[nH]c2c1)[C@@H]1CC[C@H]2CN(S(=O)(=O)Cc3ccccc3)CC(=O)N21 | 1000 | – | – | –
